Assay results as given in patent publication US20230011131A1, “NOVEL COMPOUND FOR INHIBITING HISTONE ACETYLTRANSFERASE P300 AND ANTI-FIBROSIS COMPOSITION COMPRISING SAME” (REFURE LIFE SCIENCE INC., priority 2019, published 2023).

Target: HAT p300 (histone acetyltransferase p300) (Homo sapiens, UniProt Q09472)
Test: HAT activity kit (Biovision K332): inhibition of HAT activity of p300
Assay type: biochemical
Details: for IC50: 0.5, 1, 10 or 100 μM; for HAT activity inhibitory effect (HAT p300 activity inhibited): Synthesis Examples diluted to 100 μM
Method: Candidates 1 to 67, which are HAT inhibitors manufactured based on the PCAF structure, and HAT-24, HAT-26, and HAT-28 were diluted to 100 μM, and the degree of inhibition of HAT activity of p300 (inhibitory activity) was then determined using a kit for measuring HAT activity (Biovision, Cat No. K332, U.S.A) according to the method provided by the manufacturer. Here, the tissue was treated with C646 (HAT inhibitor) as a positive control.
Candidates 1 to 14 having a good HAT activity inhibitory effect in Section were diluted to concentrations of 0.5 μM, 1 μM, 10 μM, and 100 μM. Thereafter, the degree of inhibition of HAT activity was determined in the same manner as in Section.
Each of Synthesis Examples 1 to 24 was diluted to 100 μM, and the degree of inhibition of HAT p300 activity was determined in the same manner as in Section. Here, the tissues were treated with C646 and Candidate 12 (HAT-12) as the control instead of Synthesis Examples 1 to 24.

Sequence of HAT p300 (histone acetyltransferase p300) (Q09472 whole entry): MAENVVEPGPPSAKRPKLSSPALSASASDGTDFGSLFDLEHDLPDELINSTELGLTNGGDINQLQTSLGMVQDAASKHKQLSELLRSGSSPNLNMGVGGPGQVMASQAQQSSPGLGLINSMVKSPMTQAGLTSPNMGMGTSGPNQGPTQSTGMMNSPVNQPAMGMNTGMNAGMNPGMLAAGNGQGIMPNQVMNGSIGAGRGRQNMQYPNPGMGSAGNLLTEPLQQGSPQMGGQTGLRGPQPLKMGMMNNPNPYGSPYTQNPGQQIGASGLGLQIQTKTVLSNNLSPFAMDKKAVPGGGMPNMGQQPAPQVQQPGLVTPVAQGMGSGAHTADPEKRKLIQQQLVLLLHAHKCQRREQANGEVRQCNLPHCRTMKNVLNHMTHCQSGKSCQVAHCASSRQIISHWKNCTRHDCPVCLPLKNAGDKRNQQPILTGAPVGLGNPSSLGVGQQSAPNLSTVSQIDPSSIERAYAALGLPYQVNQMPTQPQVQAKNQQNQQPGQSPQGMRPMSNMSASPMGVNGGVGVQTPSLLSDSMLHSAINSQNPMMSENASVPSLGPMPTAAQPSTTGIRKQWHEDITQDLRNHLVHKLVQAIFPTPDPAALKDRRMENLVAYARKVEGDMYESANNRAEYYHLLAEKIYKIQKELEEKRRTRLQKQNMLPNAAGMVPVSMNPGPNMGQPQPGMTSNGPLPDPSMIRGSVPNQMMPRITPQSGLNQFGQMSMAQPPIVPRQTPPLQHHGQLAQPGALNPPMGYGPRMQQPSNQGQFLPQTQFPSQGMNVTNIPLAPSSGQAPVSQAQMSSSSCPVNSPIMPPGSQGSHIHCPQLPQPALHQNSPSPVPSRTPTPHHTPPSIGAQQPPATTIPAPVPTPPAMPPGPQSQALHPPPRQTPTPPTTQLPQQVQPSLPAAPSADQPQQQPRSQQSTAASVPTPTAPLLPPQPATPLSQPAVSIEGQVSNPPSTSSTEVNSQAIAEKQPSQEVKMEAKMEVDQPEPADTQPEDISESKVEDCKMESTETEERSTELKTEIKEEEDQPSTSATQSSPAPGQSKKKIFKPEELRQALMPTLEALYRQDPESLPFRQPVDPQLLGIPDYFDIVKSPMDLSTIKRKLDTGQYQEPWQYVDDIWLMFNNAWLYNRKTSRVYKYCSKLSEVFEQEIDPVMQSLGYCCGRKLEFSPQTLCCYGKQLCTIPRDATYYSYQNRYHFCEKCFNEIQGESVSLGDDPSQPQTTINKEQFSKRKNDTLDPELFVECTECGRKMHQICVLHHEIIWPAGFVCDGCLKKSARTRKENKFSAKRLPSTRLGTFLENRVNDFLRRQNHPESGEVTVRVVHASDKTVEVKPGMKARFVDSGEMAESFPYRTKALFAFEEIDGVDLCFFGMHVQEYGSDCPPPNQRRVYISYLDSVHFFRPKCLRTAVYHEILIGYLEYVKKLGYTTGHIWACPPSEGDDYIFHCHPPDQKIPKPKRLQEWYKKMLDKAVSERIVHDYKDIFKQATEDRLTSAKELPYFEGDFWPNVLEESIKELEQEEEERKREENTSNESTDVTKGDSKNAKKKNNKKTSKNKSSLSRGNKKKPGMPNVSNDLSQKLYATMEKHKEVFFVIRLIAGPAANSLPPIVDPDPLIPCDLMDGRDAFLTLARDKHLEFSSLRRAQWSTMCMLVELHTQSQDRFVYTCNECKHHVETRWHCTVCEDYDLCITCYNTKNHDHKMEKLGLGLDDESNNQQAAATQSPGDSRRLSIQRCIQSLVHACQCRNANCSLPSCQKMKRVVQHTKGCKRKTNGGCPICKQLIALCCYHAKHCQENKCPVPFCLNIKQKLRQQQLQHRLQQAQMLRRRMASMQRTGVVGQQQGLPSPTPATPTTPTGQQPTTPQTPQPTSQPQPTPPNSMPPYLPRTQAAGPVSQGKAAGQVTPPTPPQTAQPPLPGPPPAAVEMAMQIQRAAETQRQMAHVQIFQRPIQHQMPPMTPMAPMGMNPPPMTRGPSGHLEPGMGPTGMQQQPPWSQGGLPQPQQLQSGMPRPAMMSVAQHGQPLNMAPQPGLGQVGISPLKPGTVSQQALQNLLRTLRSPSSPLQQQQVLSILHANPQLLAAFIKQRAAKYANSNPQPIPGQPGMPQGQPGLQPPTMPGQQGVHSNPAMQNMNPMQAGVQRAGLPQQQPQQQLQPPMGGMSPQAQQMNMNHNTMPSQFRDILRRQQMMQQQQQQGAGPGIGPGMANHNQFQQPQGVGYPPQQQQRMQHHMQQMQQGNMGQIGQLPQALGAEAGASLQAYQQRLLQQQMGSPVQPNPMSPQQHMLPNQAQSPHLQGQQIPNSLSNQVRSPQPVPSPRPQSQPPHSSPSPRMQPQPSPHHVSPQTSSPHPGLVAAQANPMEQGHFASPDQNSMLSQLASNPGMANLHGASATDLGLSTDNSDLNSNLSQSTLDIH

`COc1cc(/C=C/C(=O)c2cccc(C(N)=O)c2)cc(I)c1OCc1cccc(C(N)=O)c1` [Synthesis Example 6, (E)-3-(3-(4-((3-carbamoylbenzyl)oxy)-3-iodo-5-methoxyphenyl)acryloyl) benzamide] was tested, and the IC50 was 0.87 µM and the “HAT activity inhibitory effect (HAT p300 activity inhibited)” value was about 100%.
For `COc1cc(/C=C/C(=O)c2cccc(O)c2)cc(Br)c1OCc1cccc(C(N)=O)c1` [Synthesis Example 8], the IC50 was 1.06 µM and the “HAT activity inhibitory effect (HAT p300 activity inhibited)” value was about 100%.
